Source: patent US20230159463A1, “BENZONITRIC HETEROCYCLIC COMPOUND, PREPARATION METHOD THEREFOR AND USE THEREOF” (SHANGHAI ZHONGZE THERAPEUTICS, CO. LTD., priority 2020, published 2023)

How the values were obtained:
HDAC1 = molecular target: T1, HDAC1 (Homo sapiens, UniProt Q13547); experiment: HDAC1 inhibitor screening kit (Biovision), in vitro inhibitory activity; assay type: biochemical
T1 construct: purchased Biovision Company
Experimental: (§1) The in vitro inhibitory activity of histone deacetylase of the compound was determined according to the instructions of HDAC1 and HDAC6 inhibitor screening kit (Biovision Company).

HDAC6 = molecular target: T2, HDAC6 (Homo sapiens, UniProt Q9UBN7); experiment: HDAC6 inhibitor screening kit (Biovision), in vitro inhibitory activity; assay type: biochemical
T2 construct: purchased Biovision Company
T2 sequence (Q9UBN7 1-1215): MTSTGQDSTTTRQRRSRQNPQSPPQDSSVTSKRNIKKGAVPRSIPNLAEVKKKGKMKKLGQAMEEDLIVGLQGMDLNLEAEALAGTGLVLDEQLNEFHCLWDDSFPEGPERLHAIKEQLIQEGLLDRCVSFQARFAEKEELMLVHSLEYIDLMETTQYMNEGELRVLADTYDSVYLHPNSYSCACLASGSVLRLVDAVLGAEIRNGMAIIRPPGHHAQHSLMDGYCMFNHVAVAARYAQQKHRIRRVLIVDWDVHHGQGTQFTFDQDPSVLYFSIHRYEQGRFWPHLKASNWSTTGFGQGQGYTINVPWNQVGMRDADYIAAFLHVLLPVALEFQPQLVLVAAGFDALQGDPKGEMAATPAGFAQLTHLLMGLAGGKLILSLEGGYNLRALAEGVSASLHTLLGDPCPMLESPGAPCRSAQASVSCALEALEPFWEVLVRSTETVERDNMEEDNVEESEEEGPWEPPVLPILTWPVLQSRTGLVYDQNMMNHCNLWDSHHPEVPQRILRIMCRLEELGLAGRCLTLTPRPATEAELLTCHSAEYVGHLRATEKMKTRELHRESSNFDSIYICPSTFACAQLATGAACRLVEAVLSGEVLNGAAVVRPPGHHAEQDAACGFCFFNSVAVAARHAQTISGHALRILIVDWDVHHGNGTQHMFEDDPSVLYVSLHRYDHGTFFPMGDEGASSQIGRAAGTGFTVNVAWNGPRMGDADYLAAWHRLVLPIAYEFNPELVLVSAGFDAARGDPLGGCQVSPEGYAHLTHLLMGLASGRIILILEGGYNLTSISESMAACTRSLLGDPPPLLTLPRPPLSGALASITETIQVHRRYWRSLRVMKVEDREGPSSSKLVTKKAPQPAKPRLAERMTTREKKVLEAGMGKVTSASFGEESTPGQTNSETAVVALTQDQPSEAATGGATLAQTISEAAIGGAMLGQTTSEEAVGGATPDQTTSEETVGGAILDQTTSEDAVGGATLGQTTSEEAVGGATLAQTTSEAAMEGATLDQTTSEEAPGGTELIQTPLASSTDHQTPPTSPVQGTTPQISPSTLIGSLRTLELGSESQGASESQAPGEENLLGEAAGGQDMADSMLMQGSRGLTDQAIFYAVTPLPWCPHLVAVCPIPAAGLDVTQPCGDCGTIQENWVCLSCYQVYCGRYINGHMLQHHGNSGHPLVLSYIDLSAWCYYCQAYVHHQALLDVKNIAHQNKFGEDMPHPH
Experimental: as §1

hERG potassium channels = molecular target: T3, hERG potassium channels (Homo sapiens, UniProt Q12809); experiment: hERG potassium channel whole-cell patch clamp; assay type: cell-based; conditions: hERG-HEK293 cells, IKr current
T3 construct: expressed in transfected cells
T3 sequence (Q12809 whole entry): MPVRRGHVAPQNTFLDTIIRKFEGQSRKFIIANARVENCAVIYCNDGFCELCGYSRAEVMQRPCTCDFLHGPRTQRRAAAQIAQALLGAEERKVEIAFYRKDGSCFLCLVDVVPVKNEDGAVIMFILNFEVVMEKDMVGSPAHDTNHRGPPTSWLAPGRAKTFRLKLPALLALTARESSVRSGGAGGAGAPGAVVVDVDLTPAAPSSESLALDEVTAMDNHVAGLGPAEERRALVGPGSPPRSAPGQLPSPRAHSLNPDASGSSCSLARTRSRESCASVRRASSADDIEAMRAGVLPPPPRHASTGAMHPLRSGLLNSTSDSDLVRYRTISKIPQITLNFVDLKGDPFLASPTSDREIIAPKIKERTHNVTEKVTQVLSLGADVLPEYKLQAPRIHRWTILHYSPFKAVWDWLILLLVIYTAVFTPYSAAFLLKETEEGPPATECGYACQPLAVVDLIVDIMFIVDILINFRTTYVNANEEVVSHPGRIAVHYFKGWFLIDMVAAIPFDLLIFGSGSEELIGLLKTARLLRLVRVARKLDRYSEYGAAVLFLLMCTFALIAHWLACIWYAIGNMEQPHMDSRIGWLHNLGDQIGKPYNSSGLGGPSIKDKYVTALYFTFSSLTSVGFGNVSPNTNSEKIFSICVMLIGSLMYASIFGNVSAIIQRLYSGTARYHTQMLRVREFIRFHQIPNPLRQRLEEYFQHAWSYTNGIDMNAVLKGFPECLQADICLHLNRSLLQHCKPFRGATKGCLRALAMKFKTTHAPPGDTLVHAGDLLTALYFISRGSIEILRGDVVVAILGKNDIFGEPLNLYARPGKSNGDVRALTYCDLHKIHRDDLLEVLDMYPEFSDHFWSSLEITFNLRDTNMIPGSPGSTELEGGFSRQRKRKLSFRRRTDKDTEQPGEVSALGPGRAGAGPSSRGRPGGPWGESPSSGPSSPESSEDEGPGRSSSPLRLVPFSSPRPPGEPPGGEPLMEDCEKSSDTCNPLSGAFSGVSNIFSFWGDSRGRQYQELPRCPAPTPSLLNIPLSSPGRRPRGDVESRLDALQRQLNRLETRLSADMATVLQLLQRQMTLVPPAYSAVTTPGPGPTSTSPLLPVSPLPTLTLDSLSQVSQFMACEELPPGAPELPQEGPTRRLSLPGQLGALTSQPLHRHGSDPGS
From the text: Whole-cell patch clamp technique was used to record the changes of hERG current (IKr) after different concentrations of compounds acted on HEK293 cells (hERG-HEK293 steady-state cells) expressing hERG potassium channels to study the half inhibitory concentration (IC50) of the above compounds on IKr.

[1] = tested on: MRC-5 human normal embryo lung fibroblast; experiment: In vitro anti-proliferative activity (CCK8), MRC-5 normal cells; assay type: cell-based; conditions: MRC5, 10 μM, 48 hours, CCK8, class symbol, read-out: MRC-5 (Normal cell line) Inh % in 10 μM
[2] = tested on: human liver cancer cell line HepG2; experiment: In vitro anti-proliferative activity (CCK8), HepG2; assay type: cell-based; conditions: HepG2, 10 μM, 48 hours, CCK8, class symbol, read-out: Hep G2 (Liver cancer) Inh % in 10 μM
Experimental: (§2) The specific results are shown in the table (unit: […] Test method: The tumor cells in the logarithmic growth phase with good growth status were inoculated into 96-well plates at 4×10^3 per well, and 8 duplicate wells were set up in each group. The cells were cultured in a cell incubator, after the cells adhered to the wall, […]. […] The experiment was repeated 3 times, and the average of the experimental results was taken as the final experimental result, and the inhibition rate was calculated.

[3] = tested on: mixed cells and primary neurons in rat cortex; experiment: Protective effect on HCA-induced neuronal cell damage; assay type: cell-based; conditions: HCA 5 mmol/L; test concentration 0.1, 1.0 and 10.0 μM; compared with Tubastatin A at the same dose
glioma cell line U-87MG = experiment: In vitro anti-proliferative activity (CCK8), U-87MG; assay type: cell-based; conditions: Homo sapiens, 10 μM, 48 hours, CCK8, class symbol, read-out: U-87MG (Glioma) Inh % in 10 μM
[4] = Maximum tolerance dose by intragastric administration; conditions: ICR, mouse, in vivo, po; mice, single intragastric administration, 14 days observation; read-out: maximum tolerated dose
Experimental: 40 ICR mice, half male and half […], weighing 18 to 20 g, were divided into 4 groups with 10 animals in each group. After 6 hours of fasting, the test samples in each group were taken with sterilized plastic syringe and orally gavaged at a volume of 0.3 mL/10 g. The general physical signs of animals and the death of animals were recorded at 1, 2 and 4 hours after administration. […] The dead animals were dissected to observe whether there were any visible pathological changes in the organs of the animals, and pathological examinations were carried out on suspicious tissues and organs.

[5] = tested on: human lung cancer cell line A549; experiment: In vitro anti-proliferative activity (CCK8), A549; assay type: cell-based; conditions: A549, 10 μM, 48 hours, CCK8, class symbol, read-out: A549 (Lung cancer) Inh % in 10 μM
Experimental: as §2

[6] = tested on: myeloma cell line RPMI 8226; experiment: In vitro anti-proliferative activity (CCK8), RPMI 8226; assay type: cell-based; conditions: Homo sapiens, 48 hours, class symbol, read-out: RPMI 8226 (Myeloma) Inh % in 10 μM
Experimental: as §2

T1 sequence (Q13547 whole entry): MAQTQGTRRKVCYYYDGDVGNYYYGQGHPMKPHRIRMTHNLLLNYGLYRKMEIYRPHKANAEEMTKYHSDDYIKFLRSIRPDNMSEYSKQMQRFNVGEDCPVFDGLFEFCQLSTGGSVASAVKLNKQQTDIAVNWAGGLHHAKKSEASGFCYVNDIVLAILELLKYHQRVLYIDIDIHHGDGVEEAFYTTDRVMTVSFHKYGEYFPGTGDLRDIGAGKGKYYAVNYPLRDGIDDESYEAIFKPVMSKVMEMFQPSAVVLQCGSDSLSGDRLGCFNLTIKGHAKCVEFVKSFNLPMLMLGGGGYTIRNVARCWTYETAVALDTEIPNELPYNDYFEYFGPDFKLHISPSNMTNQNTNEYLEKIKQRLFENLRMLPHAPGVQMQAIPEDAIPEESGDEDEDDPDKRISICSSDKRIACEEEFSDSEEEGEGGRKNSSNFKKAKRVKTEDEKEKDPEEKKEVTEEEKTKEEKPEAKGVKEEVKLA

SMILES	IC50 (HDAC1) [nM]	IC50 (HDAC6) [nM]	also measured
O=C(NO)c1ccc(CN2CCCCc3ccc(Cl)cc32)cc1 [Compound T-1, 4-((8-chloro-2,3,4,5-tetrahydro-1H-benzo[b]azepin-1-yl)methyl)-N-hydroxybenzamide]	> 500	37	
O=C(NO)c1ccc(CN2CCCCc3ccc(Cl)cc32)cc1 [Compound T-2, 4-((8-chloro-2,3,4,5-tetrahydro-1H-benzo[b]azepin-1-yl)methyl)-N-hydroxybenzamide]	406	14	IC50 (hERG potassium channels): > 10000 nM; inhibition at 10 µM [1]: < 50%; inhibition at 10 µM [2]: 90 to 100%; protective effect against HCA-induced neuronal excitotoxicity (cell survival rate) [3]: stronger than that of the HDAC6 inhibitor compound Tubastatin A; inhibition at 10 µM (glioma cell line U-87MG): 80 to 90%; MTD at 14 days [4]: > 1000 mg/kg; inhibition at 10 µM [5]: 70 to 80%; inhibition at 10 µM [6]: 90 to 100%
O=C(NO)c1ccc(CN2CCCCc3ccc(Br)cc32)cc1 [Compound T-3, 4-((8-bromo-2,3,4,5-tetrahydro-1H-benzo[b]azepin-1-yl)methyl)-N-hydroxybenzamide]	400	43	
O=C(NO)c1ccc(CN2CCCCc3cc(F)ccc32)cc1 [Compound T-4, 4-((7-fluoro-2,3,4,5-tetrahydro-1H-benzo[b]azepin-1-yl)methyl)-N-hydroxybenzamide]	414	8.2	
COc1ccc2c(c1)N(Cc1ccc(C(=O)NO)cc1)CCCC2 [Compound T-6, 4-((8-methoxy-2,3,4,5-tetrahydro-1H-benzo[b]azepin-1-yl)methyl)-N-hydroxybenzamide]	294	8.2	
COc1cccc2c1CCCCN2Cc1ccc(C(=O)NO)cc1 [Compound T-7, 4-((6-methoxy-2,3,4,5-tetrahydro-1H-benzo[b]azepin-1-yl)methyl)-N-hydroxybenzamide]	277	6.5	
COc1cccc2c1N(Cc1ccc(C(=O)NO)cc1)CCCC2 [Compound T-8, 4-((9-methoxy-2,3,4,5-tetrahydro-1H-benzo[b]azepin-1-yl)methyl)-N-hydroxybenzamide]	287	9.2	
COc1cc2c(cc1OC)N(Cc1ccc(C(=O)NO)cc1)CCCC2 [Compound T-9, 4-((7,8-dimethoxy-2,3,4,5-tetrahydro-1H-benzo[b]azepin-1-yl)methyl)-N-hydroxybenzamide]	269	8.6	
O=C(NO)c1ccc(CN2CCCCc3ccc(-c4ccccc4)cc32)cc1 [Compound T-10, 4-((8-phenyl-2,3,4,5-tetrahydro-1H-benzo[b]azepin-1-yl)methyl)-N-hydroxybenzamide]	> 500	129	
O=C(NO)c1ccc(CN2CCCCc3ccc(-c4ccncc4)cc32)cc1 [Compound T-11, 4-((8-(pyridin-4-yl)-2,3,4,5-tetrahydro-1H-benzo[b]azepin-1-yl)methyl)-N-hydroxybenzamide]	> 500	14.3	
O=C(NO)c1ccc(CN2CCCCc3ccc(C4CC4)cc32)cc1 [Compound T-12, 4-((8-cyclopropyl-2,3,4,5-tetrahydro-1H-benzo[b]azepin-1-yl)methyl)-N-hydroxybenzamide]	> 500	45	
CN(C)c1ccc2c(c1)N(Cc1ccc(C(=O)NO)cc1)CCCC2 [Compound T-13, 4-((8-dimethylamino-2,3,4,5-tetrahydro-1H-benzo[b]azepin-1-yl)methyl)-N-hydroxybenzamide]	> 500	85	
O=C(NO)c1ccc(CN2CCCCc3ccc(N4CCCCC4)cc32)cc1 [Compound T-14, 4-((8-(piperidin-1-yl)-2,3,4,5-tetrahydro-1H-benzo[b]azepin-1-yl)methyl)-N-hydroxybenzamide]	> 500	142	
CN1CCCN(Cc2ccc(C(=O)NO)cc2)c2ccccc21 [Compound T-17]	> 500	7.4	
O=C(NO)c1ccc(CN2CCCC(=O)c3ccccc32)cc1 [Compound T-18, 4-((5-oxo-2,3,4,5-tetrahydro-1H-benzo[b]azepin-1-yl)methyl)-N-hydroxybenzamide]	421	7.2	
CN(C)C1CCCN(Cc2ccc(C(=O)NO)cc2)c2ccccc21 (stereo not drawn) [Compound T-21, 4-((5-dimethylamino-2,3,4,5-tetrahydro-1H-benzo[b]azepin-1-yl)methyl)-N-hydroxybenzamide]			IC50 (hERG potassium channels): > 10000 nM; inhibition at 10 µM [1]: < 50%; inhibition at 10 µM [2]: 90 to 100%; protective effect against HCA-induced neuronal excitotoxicity (cell survival rate) [3]: stronger than that of the HDAC6 inhibitor compound Tubastatin A; inhibition at 10 µM (glioma cell line U-87MG): 80 to 90%; MTD at 14 days [4]: > 1000 mg/kg; inhibition at 10 µM [5]: 70 to 80%; inhibition at 10 µM [6]: 90 to 100%
O=C(NO)c1ccc(CN2CCCCc3ccccc32)cc1F [Compound T-24, 4-((2,3,4,5-tetrahydro-1H-benzo[b]azepin-1-yl)methyl)-2-fluoro-N-hydroxybenzamide]	> 500	12	
COc1ccc2c(c1)CCN(Cc1ccc(C(=O)NO)cc1)CC2 [Compound T-25, 4-((7-methoxy-1,2,4,5-tetrahydro-3H-benzo[d]azepin-3-yl)methyl)-N-hydroxybenzamide]	> 500	17	
COc1cccc2c1CCN(Cc1ccc(C(=O)NO)cc1)CC2 [Compound T-26, 4-((6-methoxy-1,2,4,5-tetrahydro-3H-benzo[d]azepin-3-yl)methyl)-N-hydroxybenzamide]	> 500	97	
COc1ccc(Br)c2c1CCN(Cc1ccc(C(=O)NO)cc1)CC2 [Compound T-27, 4-((6-bromo-9-methoxy-1,2,4,5-tetrahydro-3H-benzo[d]azepin-3-yl)methyl)-N-hydroxybenzamide]	431	29	
